Data taken from ChEMBL document CHEMBL1649554, “Specific therapeutic schemes of omeprazole affect the orientation of Helicobacter pylori” (Antimicrob Agents Chemother, 2009).
Calls of active or inactive are those of the source. No cut-off for these calls is given here.

What was measured:
Helicobacter pylori [1] = experiment: Antibacterial activity against Helicobacter pylori SS1 infected in Mongolian gerbils assessed as bacterial density in mucus in central mucus layer at 100 uM, ip administered as single dose through dialysis measured after 90 mins post last dose; format: functional
Helicobacter pylori [2] = experiment: Antibacterial activity against Helicobacter pylori SS1 infected in Mongolian gerbils assessed as bacterial density in mucus in 0 to 15 um above the Juxtamucosal layer at 100 uM, ip administered as single dose through dialysis measured after 90 mins post last dose; format: functional
Helicobacter pylori [3] = experiment: Antibacterial activity against Helicobacter pylori SS1 infected in Mongolian gerbils assessed as bacterial orientation in central layer at 0.25 mg, ip administered as two subsequent doses in 8 hrs dosing interval; format: functional, organism-based
Helicobacter pylori [4] = experiment: Antibacterial activity against Helicobacter pylori SS1 infected in Mongolian gerbils assessed as bacterial orientation in 15 to 25 um above the Juxtamucosal layer at 0.25 mg, ip administered as two subsequent doses in 8 hrs dosing interval; format: functional, organism-based
Helicobacter pylori [5] = experiment: Antibacterial activity against Helicobacter pylori SS1 infected in Mongolian gerbils assessed as bacterial orientation in central layer at 35 ug/ml administered as single dose in 8 hrs dosing interval; format: functional, organism-based
[6] = Cmax in Mongolian gerbils plasma at 0.5 mg, ip; format: ADME, organism-based, Meriones unguiculatus; design: dose 0.5 mg, route intraperitoneal; conditions: gerbil
Helicobacter pylori [7] = experiment: Antibacterial activity against Helicobacter pylori SS1 infected in Mongolian gerbils assessed as bacterial density in mucus in luminal mucus layer at 0.25 mg, ip administered as two doses in 24 hrs dosing interval measured after 90 mins post last dose (reference value: 60+/-50 bacteria per nl of mucus); format: functional
Helicobacter pylori [8] = experiment: Antibacterial activity against Helicobacter pylori SS1 infected in Mongolian gerbils assessed as bacterial density in mucus in luminal mucus layer at 0.25 mg, ip administered as two doses in 8 hrs dosing interval measured after 90 mins post last dose (reference value: 60+/-50 bacteria per nl of mucus); format: functional
Helicobacter pylori [9] = experiment: Antibacterial activity against Helicobacter pylori SS1 infected in Mongolian gerbils assessed as bacterial density in mucus in luminal mucus layer at 20 uM, ip administered as single dose through dialysis measured after 90 mins post last dose (reference value: 60+/-50 bacteria per nl of mucus); format: functional
Helicobacter pylori [10] = experiment: Antibacterial activity against Helicobacter pylori SS1 infected in Mongolian gerbils assessed as bacterial density in mucus in central mucus layer at 0.25 mg, ip administered as two doses of solvent in 24 hrs dosing interval measured after 90 mins post last dose (reference value: 90+/-60 bacteria per nl of mucus); format: functional
Helicobacter pylori [11] = experiment: Antibacterial activity against Helicobacter pylori SS1 infected in Mongolian gerbils assessed as bacterial density in mucus in 15 to 25 um above the Juxtamucosal layer at 0.25 mg, ip administered as two doses in 24 hrs dosing interval measured after 90 mins post last dose (reference value: 2280+/-430 bacteria per nl of mucus); format: functional
Helicobacter pylori [12] = experiment: Antibacterial activity against Helicobacter pylori SS1 infected in Mongolian gerbils assessed as bacterial density in mucus in 15 to 25 um above the Juxtamucosal layer at 0.25 mg, ip administered as two doses in 8 hrs dosing interval measured after 90 mins post last dose (reference value: 2280+/-430 bacteria per nl of mucus); format: functional
Helicobacter pylori [13] = experiment: Antibacterial activity against Helicobacter pylori SS1 infected in Mongolian gerbils assessed as bacterial density in mucus in 15 to 25 um above the Juxtamucosal layer at 20 uM, ip administered as single dose through dialysis measured after 90 mins post last dose (reference value: 2280+/-430 bacteria per nl of mucus); format: functional
Helicobacter pylori [14] = experiment: Antibacterial activity against Helicobacter pylori SS1 infected in Mongolian gerbils assessed as bacterial density in mucus in 0 to 15 um above the Juxtamucosal layer at 0.25 mg, ip administered as two doses in 24 hrs dosing interval measured after 90 mins post last dose (reference value: 4560+/-400 bacteria per nl of mucus); format: functional
Helicobacter pylori [15] = experiment: Antibacterial activity against Helicobacter pylori SS1 infected in Mongolian gerbils assessed as bacterial density in mucus in 0 to 15 um above the Juxtamucosal layer at 0.25 mg, ip administered as two doses in 8 hrs dosing interval measured after 90 mins post last dose (reference value: 4560+/-400 bacteria per nl of mucus); format: functional
Helicobacter pylori [16] = experiment: Antibacterial activity against Helicobacter pylori SS1 infected in Mongolian gerbils assessed as bacterial density in mucus in 0 to 15 um above the Juxtamucosal layer at 0.25 mg, ip administered as two doses of solvent in 24 hrs dosing interval measured after 90 mins post last dose (reference value: 4560+/-400 bacteria per nl of mucus); format: functional
Helicobacter pylori [17] = experiment: Antibacterial activity against Helicobacter pylori SS1 infected in Mongolian gerbils assessed as bacterial density in mucus in 0 to 15 um above the Juxtamucosal layer at 20 uM, ip administered as single dose through dialysis measured after 90 mins post last dose (reference value: 4560+/-400 bacteria per nl of mucus); format: functional
[18] = Cmax in Mongolian gerbils plasma; format: ADME, Meriones unguiculatus; conditions: gerbil
Helicobacter pylori [19] = experiment: Antibacterial activity against Helicobacter pylori SS1 infected in Mongolian gerbils assessed as bacterial disorientation in luminal mucus layer at 0.25 mg, ip administered as two doses in 8 hrs dosing interval measured after 90 mins post last dose; format: functional, organism-based
Helicobacter pylori [20] = experiment: Antibacterial activity against Helicobacter pylori SS1 infected in Mongolian gerbils assessed as bacterial disorientation in luminal mucus layer at 0.25 mg, ip followed by second dose administered as solvent in 24 hrs dosing interval measured after 90 mins post last dose; format: functional, organism-based
Helicobacter pylori [21] = experiment: Antibacterial activity against Helicobacter pylori SS1 infected in Mongolian gerbils assessed as bacterial disorientation in central mucus layer at 0.25 mg, ip followed by second dose administered as solvent in 24 hrs dosing interval measured after 90 mins post last dose; format: functional, organism-based
Helicobacter pylori [22] = experiment: Antibacterial activity against Helicobacter pylori SS1 infected in Mongolian gerbils assessed as bacterial disorientation in 15 to 25 um above the Juxtamucosal layer at 0.25 mg, ip followed by second dose administered as solvent in 24 hrs dosing interval measured after 90 mins post last dose; format: functional, organism-based
Helicobacter pylori [23] = experiment: Antibacterial activity against Helicobacter pylori SS1 infected in Mongolian gerbils assessed as bacterial disorientation in 0 to 15 um above the Juxtamucosal layer at 0.25 mg, ip followed by second dose administered as solvent in 24 hrs dosing interval measured after 90 mins post last dose; format: functional, organism-based
Helicobacter pylori [24] = experiment: Antibacterial activity against Helicobacter pylori SS1 infected in Mongolian gerbils assessed as bacterial disorientation in central layer at 0.25 mg, ip administered as two doses of solvent measured after 90 mins post last dose (reference value: 4560+/-400 bacteria per nl of mucus); format: functional, organism-based
Helicobacter pylori [25] = experiment: Antibacterial activity against Helicobacter pylori SS1 infected in Mongolian gerbils assessed as bacterial disorientation in central mucus layer at 20 uM, ip administered as single dose through dialysis measured after 90 mins post last dose; format: functional, organism-based
Helicobacter pylori [26] = experiment: Antibacterial activity against Helicobacter pylori SS1 infected in Mongolian gerbils assessed as bacterial disorientation in 15 to 25 um above the Juxtamucosal layer at 20 uM, ip administered as single dose through dialysis measured after 90 mins post last dose; format: functional, organism-based
Helicobacter pylori [27] = experiment: Antibacterial activity against Helicobacter pylori SS1 infected in Mongolian gerbils assessed as bacterial density in mucus in luminal mucus layer at 100 uM, ip administered as single dose through dialysis measured after 90 mins post last dose; format: functional

For `COc1ccc2[nH]c([S+]([O-])Cc3ncc(C)c(OC)c3C)nc2c1` (configuration not stated) [OMEPRAZOLE], the Activity (Helicobacter pylori [1]) was 60 nL⁻¹, the Activity (Helicobacter pylori [2]) was 570 nL⁻¹ and the Activity (Helicobacter pylori [3]) was “inactive”. The Activity (Helicobacter pylori [4]) was “inactive”, the Activity (Helicobacter pylori [5]) was “inactive” and the Cmax [6] was 20 µM. For the same compound, the Activity (Helicobacter pylori [7]) was 120 nL⁻¹, the Activity (Helicobacter pylori [8]) was 30 nL⁻¹ and the Activity (Helicobacter pylori [9]) was 50 nL⁻¹. The Activity (Helicobacter pylori [10]) was 40 nL⁻¹, the Activity (Helicobacter pylori [11]) was 2230 nL⁻¹ and the Activity (Helicobacter pylori [12]) was 1800 nL⁻¹. It also gave an Activity (Helicobacter pylori [13]) of 2010 nL⁻¹, an Activity (Helicobacter pylori [14]) of 3310 nL⁻¹ and an Activity (Helicobacter pylori [15]) of 4170 nL⁻¹. It also gave an Activity (Helicobacter pylori [16]) of 5740 nL⁻¹, an Activity (Helicobacter pylori [17]) of 5050 nL⁻¹ and a Cmax [18] of 10 µM. The Activity (Helicobacter pylori [19]) was “inactive”, the Activity (Helicobacter pylori [20]) was “inactive” and the Activity (Helicobacter pylori [21]) was “inactive”. The Activity (Helicobacter pylori [22]) was “inactive”, the Activity (Helicobacter pylori [23]) was “Active” and the Activity (Helicobacter pylori [24]) was “inactive”. The Activity (Helicobacter pylori [25]) was “inactive”, the Activity (Helicobacter pylori [26]) was “inactive” and the Activity (Helicobacter pylori [27]) was 60 nL⁻¹.
